Measured values reported in US20190231761A1, “COMPOSITIONS AND METHODS FOR TARGETING FRUCTOSE ENZYMES AND TRANSPORTERS FOR THE TREATMENT OF CANCER” (Duke University, priority 2018, published 2019).

Legend:
LV-HCT116 cells = assay: intravenous injection of liver-derived HCT116 (LV-HCT116), tumors in the liver; type: in vivo, NOD/SCID mice; conditions: 5-Fluorouracil 100 mg/kg, Oxaliplatin 6 mg/kg, intraperitoneal twice a week; compared with ALDOB knockdown or fructose-restricted diet
Source text: FIG. 41A is representative IVIS luciferase in vivo images of mice with intravenous injection of liver-derived HCT116 cells with or without ALDOB knockdown. FIG. 41B are bright field and fluorescent (mCherry) images of livers of mice with intravenous injection of liver-derived HCT116 cells with or without ALDOB knockdown. FIG. 41C is a graph showing quantification of liver metastasis of mice with intravenous injection of liver-derived HCT116 cells with or without ALDOB knockdown, and show knockdown of ALDOB suppressed CRC liver lesions. FIG. 41D are representative IVIS luciferase in vivo images of mice with intravenous injection of liver-derived HCT116 with fructose diet. FIG. 41E are bright field and fluorescent (mCherry) images of livers of mice with intravenous injection of liver-derived HCT116 with fructose diet. FIG. 41F is a graph of quantification of liver metastasis of mice with intravenous injection of liver-derived HCT116 with fructose diet that show mice fed with fructose-restricted diet suppressed liver lesions. […] FIG. 41I is a graph showing quantification of liver lesions. […] Error bars denote SEM of 3 mice per group. **, p<0.01; ***, p<0.001. p-value was calculated based on one-way ANOVA. […]

CRC cells = assay: KHK knockdown in CRC cells transplanted into mouse cecum, liver metastasis; type: in vivo; conditions: IVIS luciferase images, quantification of liver metastasis
Experimental: FIG. 42A-42B illustrates KHK knockdown suppresses liver metastasis. FIG. 42A is a Western blot showing KHK knockdown efficiency. FIG. 42B are representative IVIS luciferase in vivo images, bright field and fluorescent images of livers, and quantification of liver metastasis. Error bars denote SEM of 5 mice per group. p-values were calculated based on one-way ANOVA. ***, p<0.001.
To determine if silencing ketohexokinase (KHK) can suppress liver metastases, KHK was knocked down using shRNA nucleic acid sequence SEQ ID NO:4 (FIG. 42A) in CRC cells and the cells were transplanted into the mouse cecum using the methods described in Example 6 with respect to ALDOB knockdown.

HCT116 cells = assay: cecum injection model, CRC liver metastasis, HCT116 cells with ALDOB knockdown; type: in vivo, NOD/SCID mice; conditions: cecum-injected HCT116 cells with ALDOB knockdown; control vectors 5 out of 5 mice
Experimental: (§1) Tumor-bearing mice were treated with 5-Fluorouracil (Sigma, St. Louis, Mo.) at a dose of 100 mg/kg, Oxaliplatin (Sigma, St. Louis, Mo.) at a dose of 6 mg/kg, 2-deoxyglucose (Sigma, St. Louis, Mo.) at a dose of 500 mg/kg or normal saline as vehicle control through intraperitoneal route twice a week. 2×10^6 cells carrying a luciferase/mCherry or luciferase/GFP vector were injected into the mice for cecum injection model and intrahepatic injection model. 5×10^5 cells were injected for intravenous injection. Luciferase signal was tracked in vivo using the IVIS luciferase imaging system 200 (Xenogen) for tumor development. Liver metastases were evaluated based on mCherry signals by an OV100 microscope (Olympus) after scarifying the mice.
(§2) To assess the contribution of ALDOB to fructose metabolism, ALDOB was knocked down in CRC cells using two shRNAs and validated the knockdown efficiencies by Western blot (FIG. 23). ALDOB lentiviral shRNA constructs were purchased from Sigma Mission shRNA dataset. The lentiviral vectors were co-transfected with helper plasmids into 293T cells. The lentiviral vectors were transfected into 293T cells. The viral supernatant was collected 48 hours after transfection and was used to infect CRC cells. […]

CRC119 cells = assay: cecum injection model, CRC liver metastasis, CRC119 cells with ALDOB knockdown; type: in vivo, NOD/SCID mice; conditions: cecum-injected CRC119 cells with ALDOB knockdown; control vectors 5 out of 5 mice
Experimental: as §1, §2

CRC57 cells = assay: cecum injection model, CRC liver metastasis, CRC57 cells with ALDOB knockdown; type: in vivo, NOD/SCID mice; conditions: cecum-injected CRC57 cells with ALDOB knockdown; control vectors 5 out of 5 mice
Experimental: as §1, §2

O=c1[nH]cc(F)c(=O)[nH]1 [5-Fluorouracil]
benefit in terms of tumor suppression or survival (LV-HCT116 cells): less benefit

O=C1[O][Pt]2([NH][C@@H]3CCCC[C@H]3[NH]2)[O]C1=O [Oxaliplatin]
benefit in terms of tumor suppression or survival (LV-HCT116 cells): less benefit

SEQ ID NO:4: shRNA against human fructokinase (KHK) (CCGGCCTAAGGAGGACTCGGAGATACTCGAGTATCTCCGAGTCCTCCTTAGGTTTTTG)
metastatic CRC growth in the liver (CRC cells): significantly suppressed

shRNA1: shRNA against human ALDOB, Sigma Mission lentiviral construct (CCGGCTCAGAAATTGCCCAGAGCATCTCGAGATGCTCTGGGCAATTTCTGAGTTTTTG)
mice that developed detectable liver metastases (HCT116 cells): 2 out of 5 mice
mice that developed detectable liver metastases (CRC119 cells): 2 out of 5 mice
mice that developed detectable liver metastases (CRC57 cells): 2 out of 5 mice

shRNA2: shRNA against human ALDOB, Sigma Mission lentiviral construct (CCGGGTGGGAATCAAGTTAGACCAACTCGAGTTGGTCTAACTTGATTCCCACTTTTTG)
mice that developed detectable liver metastases (HCT116 cells): 2 out of 5 mice
mice that developed detectable liver metastases (CRC119 cells): 1 out of 5 mice
mice that developed detectable liver metastases (CRC57 cells): 2 out of 5 mice
